Measurements taken from patent US8133849B2, “Herbicidal compounds” (Syngenta Limited, priority 2007, dated 2012).

Assays:
Experiment in all cases: Example B2 herbicidal action, post-emergence, pots in glasshouse, damage score 0-10
Assay type in all cases: in vivo
Details in all cases: application post-emergence, rate 1000 g/ha, evaluated after 13 days
[1] = tested on: Amaranthus retroflexus
Description: (§1) Seeds of a variety of test species were sown in standard soil in pots. After 8 days cultivation (post-emergence) under controlled conditions in a glasshouse (at 24/16° C., day/night; 14 hours light; 65% humidity), the plants were sprayed with an aqueous spray solution derived from the formulation of the technical active ingredient in acetone/water (50:50) solution containing 0.5% Tween 20 (polyoxyethelyene sorbitan monolaurate, CAS RN 9005-64-5). The test plants were then grown in a glasshouse under controlled conditions in a glasshouse (at 24/16° C., day/night; 14 hours light; 65% humidity) and watered twice daily. After 13 days, the test was evaluated (10=total damage to plant; 0=no damage to plant).

[2] = tested on: Echinochloa crus-galli
Description: as §1

[3] = tested on: Ipomea hederaceae
Description: as §1

[4] = tested on: Setaria faberi
Description: as §1

[5] = tested on: Solanum nigrum
Description: as §1

SMILES | AMARE damage score (10=total damage to plant; 0=no damage to plant) [1] | ECHCG damage score (10=total damage to plant; 0=no damage to plant) [2] | IPOHE damage score (10=total damage to plant; 0=no damage to plant) [3] | SETFA damage score (10=total damage to plant; 0=no damage to plant) [4] | SOLNI damage score (10=total damage to plant; 0=no damage to plant) [5]
CCN1c2nccnc2C(O)=C(c2cc(C(F)(F)F)ccc2Cl)S1(=O)=O [Compound D15] | 9 | 2 | 9 | 4 | 9
CC#CCN1c2nccnc2C(OC(=O)SCC)=C(c2c(Cl)ccc(Cl)c2C(F)(F)F)S1(=O)=O [Compound C97] | 0 | 1 | 4 | 0 | 6
CCN1c2nccnc2C(OC(=O)C(C)C)=C(c2cc(C(F)(F)F)ccc2Br)S1(=O)=O [Compound C70] | 7 | 7 | 10 | 1 | 8
O=S1(=O)C(c2c(Br)cccc2Br)=C(O)c2nccnc2N1CC(F)F [Compound D28] | 10 | 8 | 8 | 8 | 9
C#CCN1c2nccnc2C(OC(=O)C(C)C)=C(c2ccccc2[N+](=O)[O-])S1(=O)=O [Compound C68] | 0 | 0 | 1 | 0 | 2
CCN1c2nccnc2C(O)=C(c2ccccc2OC(F)(F)F)S1(=O)=O [Compound D5] | 10 | 4 | 9 | 6 | 10
CCN1c2nccnc2C(O)=C(c2c(Cl)cccc2C(F)(F)F)S1(=O)=O [Compound D6] | 10 | 7 | 9 | 5 | 10
CN1c2nccnc2C(O)=C(c2c(Cl)ccc(Cl)c2Cl)S1(=O)=O [Compound D47] | 8 | 4 | 8 | 1 | 10
CCN1c2nccnc2C(OS(=O)(=O)C(F)(F)F)=C(c2ccc(Cl)cc2C(F)(F)F)S1(=O)=O [Compound C29, trifluoromethanesulfonic acid-3-(4-chloro-2-trifluoromethylphenyl)-1-ethyl-2,2-dioxo-1,2-dihydro-2-λ-6-thia-1,5,8-triaza-naphthalen-4-yl ester] | 2 | 4 | 5 | 0 | 5
O=S1(=O)C(c2c(F)ccc(-c3cccc(Cl)c3)c2Cl)=C(O)c2nccnc2N1CC(F)F [Compound D20] | 3 | 1 | 6 | 1 | 5
CSC(=O)OC1=C(c2c(Cl)cccc2C(F)(F)F)S(=O)(=O)N(CC(F)F)c2nccnc21 [Compound C129] | 10 | 9 | 9 | 9 | 10
CC(C)(C)C(=O)OC1=C(c2cc(C(F)(F)F)ccc2Cl)S(=O)(=O)N(CC(F)F)c2nccnc21 [Compound C34, 2,2-dimethyl-propionic acid 3-(2-chloro-5-trifluoromethyl-phenyl)-1-(2,2-difluoro-ethyl)-2,2-dioxo-1,2-dihydro-2-λ-6-thia-1,5,8-triaza-naphthalen-4-yl ester] | 7 | 7 | 10 | 2 | 9
CCN1c2nccnc2C(OC(=O)C(C)(C)C)=C(c2ccccc2C(F)(F)F)S1(=O)=O [Compound C64] | 4 | 5 | 6 | 3 | 5
CCN1c2nccnc2C(OC(=O)C(C)C)=C(c2ccccc2C(F)(F)F)S1(=O)=O [Compound C63] | 9 | 7 | 10 | 7 | 9
CC(C)C(=O)OC1=C(c2cc(C(F)(F)F)ccc2Cl)S(=O)(=O)N(C=CCl)c2nccnc21 (mixture of isomers) [Compound C114] | 4 | 0 | 6 | 2 | 10
CC(C)C(=O)OC1=C(c2ccccc2C#N)S(=O)(=O)N(CC(F)F)c2nccnc21 [Compound C128] | 7 | 0 | 8 | 0 | 9
CCN1c2nccnc2C(OC(=O)C(C)(C)C)=C(c2c(F)ccc(Cl)c2Cl)S1(=O)=O [Compound C16] | 7 | 3 | 7 | 0 | 10
O=S1(=O)C(c2cc(C(F)(F)F)ccc2Cl)=C(O)c2nccnc2N1CC(F)F [Compound D16, 3-(2-chloro-5-trifluoromethyl-phenyl)-1-(2,2-difluoro-ethyl)-2,2-dioxo-1,2-dihydro-2-λ-6-thia-1,5,8-triaza-naphthalen-4-ol] | 10 | 5 | 9 | 2 | 10
CC(C)(C)C(=O)OC1=C(c2c(F)ccc(Cl)c2Cl)S(=O)(=O)N(CC(F)F)c2nccnc21 [Compound C20] | 10 | 8 | 10 | 0 | 10
CCN1c2nccnc2C(O)=C(c2c(C(F)(F)F)cccc2C(F)(F)F)S1(=O)=O [Compound D43] | 7 | 3 | 8 | 4 | 8
COc1ccc(Cl)c(C2=C(OC(=O)C(C)(C)C)c3nccnc3N(CC(F)F)S2(=O)=O)c1F [Compound C144] | 0 | 0 | 7 | 0 | 4
CC(C)(C)C(=O)OC1=C(c2cc(C(F)(F)F)ccc2Br)S(=O)(=O)N(CC(F)F)c2nccnc21 [Compound C80] | 10 | 6 | 10 | 0 | 10
CCN1c2nccnc2C(OC(=O)C(C)C)=C(c2c(Cl)cccc2C(F)(F)F)S1(=O)=O [Compound C30] | 8 | 6 | 9 | 5 | 10
